Legend:
buckwheat, wild = test: Test D preemergence; format: in vivo, Polygonum convolvulus; details: scale 0 to 100
Text: (§1) Seeds of plant species selected from bluegrass (annual bluegrass, Poa annua), blackgrass (Alopecurus myosuroides), canarygrass (littleseed canarygrass, Phalaris minor), chickweed (common chickweed, Stellaria media), galium (catchweed bedstraw, Galium aparine), bromegrass, downy (downy bromegrass, Bromus tectorum), field poppy (Papaver rhoeas), field violet (Viola arvensis), foxtail, green (green foxtail, Setaria viridis), deadnettle (henbit deadnettle, Lamium amplexicaule), ryegrass, Italian (Italian ryegrass, Lolium multiflorum), kochia (Kochia scoparia), lambsquarters (Chenopodium album), oilseed rape (Brassica napus), pigweed (redroot pigweed, Amaranthus retroflexus), chamomile (scentless chamomile, Matricaria inodora), speedwell (bird's-eye speedwell, Veronica persica), barley, spring (spring barley, Hordeum vulgare), wheat, spring (spring wheat, Triticum aestivum), buckwheat, wild (wild buckwheat, Polygonum convolvulus), mustard, wild (wild mustard, Sinapis arvensis), oat, wild (wild oat, Avena fatua), radish, wild (wild radish, Raphanus raphanistrum), windgrass (Apera spica-venti), Russian thistle (Salsola kali), barley, winter (winter barley, Hordeum vulgare), and wheat, winter (winter wheat, Triticum aestivum) were planted into a silt loam soil and treated preemergence with test chemicals formulated in a non-phytotoxic solvent mixture which included a surfactant.
(§2) At the same time, these species were planted in pots containing Redi-Earth® planting medium (Scotts Company, 14111 Scottslawn Road, Marysville, Ohio 43041) comprising spaghnum peat moss, vermiculite, wetting agent and starter nutrients and treated with postemergence applications of the test chemicals formulated in the same manner. Plants ranged in height from 2 to 18 cm (1- to 4-leaf stage). Treated plants and controls were maintained in a controlled growth environment for 14 to 21 days after which time all species were compared to controls and visually evaluated. Plant response ratings, summarized in Table D, are based on a scale of 0 to 100 where 0 is no effect and 100 is complete control. A dash (-) response means no test result.

kochia [1] = test: Test D preemergence; format: in vivo, Kochia scoparia; details: scale 0 to 100
Text: as §1, §2

windgrass = test: Test D postemergence; format: in vivo, Apera spica-venti; details: scale 0 to 100
Text: as §1, §2

pigweed = test: Test D preemergence; format: in vivo, Amaranthus retroflexus; details: scale 0 to 100
Text: as §1, §2

barley, winter = test: Test D preemergence; format: in vivo, Hordeum vulgare; details: scale 0 to 100
Text: as §1, §2

barley, spring = test: Test D preemergence; format: in vivo, Hordeum vulgare; details: scale 0 to 100
Text: as §1, §2

galium = test: Test D postemergence; format: in vivo, Galium aparine; details: scale 0 to 100
Text: as §1, §2

chickweed = test: Test D postemergence; format: in vivo, Stellaria media; details: scale 0 to 100
Text: as §1, §2

bromegrass, downy = test: Test D postemergence; format: in vivo, Bromus tectorum; details: scale 0 to 100
Text: as §1, §2

hairy beggarticks = test: Test F preemergence; format: in vivo, Bidens pilosa
Text: (§3) Seeds of plant species selected from corn (Zea mays), soybean (Glycine max), velvetleaf (Abutilon theophrasti), lambsquarters (Chenopodium album), wild poinsettia (Euphorbia heterophylla), pigweed, palmer (palmer pigweed, Amaranthus palmeri), common waterhemp (Amaranthus rudis), surinam grass (Brachiaria decumbens), large crabgrass (Digitaria sanguinalis), crabgrass, Brazil (Brazilian crabgrass, Digitaria horizontalis), fall panicum (Panicum dichotomiflorum), giant foxtail (Setaria faberii), green foxtail (Setaria viridis), goosegrass (Eleusine indica), johnsongrass (Sorghum halepense), common ragweed (Ambrosia elation), barnyardgrass (Echinochloa crus-galli), southern sandbur (Cenchrus echinatus), arrowleaf sida (Sida rhombifolia), Italian ryegrass (Lolium multiflorum), dayflower, VA (Virginia (VA) dayflower, Commelina virginica), field bindweed (Convolvulus arvensis), cocklebur (common cocklebur, Xanthium strumarium), morningglory (Ipomoea coccinea), nightshade (eastern black nightshade, Solanum ptycanthum), kochia (Kochia scoparia), yellow nutsedge (Cyperus esculentus), and hairy beggarticks (Bidens pilosa), were planted into a silt loam soil and treated preemergence with test chemicals formulated in a non-phytotoxic solvent mixture which included a surfactant.
(§4) At the same time, plants from these crop and weed species and also horseweed (Canada horseweed, Conyza canadensis), smartweed (ladysthumb smartweed, Polygonum persicaria), waterhemp_RES1, (ALS & Triazine resistant common waterhemp, Amaranthus rudis), and waterhemp_RES2, (ALS & HPPD resistant common waterhemp, Amaranthus rudis) were treated with postemergence applications of test chemicals formulated in the same manner. Plants ranged in height from 2 to 18 cm for postemergence treatments (1- to 4-leaf stage). Treated plants and controls were maintained in a greenhouse for 14 to 21 days, after which time all species were compared to controls and visually evaluated. Plant response ratings, summarized in Table F, are based on a scale of 0 to 100 where 0 is no effect and 100 is complete control. A dash (-) response means no test result.

arrowleaf sida = test: Test F preemergence; format: in vivo, Sida rhombifolia
Text: as §3, §4

nightshade = test: Test F preemergence; format: in vivo, Solanum ptycanthum
Text: as §3, §4

kochia [2] = test: Test F preemergence; format: in vivo, Kochia scoparia
Text: as §3, §4

common ragweed = test: Test F preemergence; format: in vivo, Ambrosia elation
Text: as §3, §4

[3] = Preemergence, 31 g ai/ha, scale 0 to 100
[4] = Preemergence, 62 g ai/ha, scale 0 to 100
[5] = Preemergence, 125 g ai/ha, scale 0 to 100
[6] = preemergence, 8 g ai/ha, scale 0 to 100, 100 is complete control
[7] = preemergence, 16 g ai/ha, scale 0 to 100, 100 is complete control

CCc1cc(C(=O)NC(C)C)nn1Cc1ccnc(C(F)(F)F)c1 [Compound 103]
Plant response rating, Buckwheat, Wild (buckwheat, wild; 31 g ai/ha): 75
Plant response rating, Buckwheat, Wild (buckwheat, wild; 62 g ai/ha): 100
Plant response rating, Buckwheat, Wild (buckwheat, wild; 125 g ai/ha): 100
Plant response rating, Buckwheat, Wild (buckwheat, wild; 250 g ai/ha): 100
Plant response rating, Kochia (kochia [1]; 31 g ai/ha): 10
Plant response rating, Kochia (kochia [1]; 62 g ai/ha): 65
Plant response rating, Kochia (kochia [1]; 125 g ai/ha): 85
Plant response rating, Kochia (kochia [1]; 250 g ai/ha): 100
Windgrass plant response rating (windgrass; Postemergence, 31 g ai/ha): 10
Windgrass plant response rating (windgrass; Postemergence, 125 g ai/ha): 25
Windgrass plant response rating (windgrass; Postemergence, 250 g ai/ha): 35
Windgrass plant response rating (windgrass; postemergence, 62 g ai/ha): 20
Plant response rating, Pigweed (pigweed; 31 g ai/ha): 100
Plant response rating, Pigweed (pigweed; 62 g ai/ha): 100
Plant response rating, Pigweed (pigweed; 125 g ai/ha): 100
Plant response rating, Pigweed (pigweed; 250 g ai/ha): 100
Plant response rating, Barley, Winter (barley, winter; 31 g ai/ha): 0
Plant response rating, Barley, Winter (barley, winter; 62 g ai/ha): 35
Plant response rating, Barley, Winter (barley, winter; 125 g ai/ha): 60
Plant response rating, Barley, Winter (barley, winter; 250 g ai/ha): 85
Plant response rating, Barley, Spring (barley, spring; 31 g ai/ha): 15
Plant response rating, Barley, Spring (barley, spring; 62 g ai/ha): 35
Plant response rating, Barley, Spring (barley, spring; 125 g ai/ha): 80
Plant response rating, Barley, Spring (barley, spring; 250 g ai/ha): 100
Galium plant response rating (galium; Postemergence, 31 g ai/ha): 55
Galium plant response rating (galium; Postemergence, 125 g ai/ha): 75
Galium plant response rating (galium; Postemergence, 250 g ai/ha): 80
Galium plant response rating (galium; postemergence, 62 g ai/ha): 70
Chickweed plant response rating (chickweed; Postemergence, 31 g ai/ha): 20
Chickweed plant response rating (chickweed; Postemergence, 125 g ai/ha): 40
Chickweed plant response rating (chickweed; Postemergence, 250 g ai/ha): 70
Chickweed plant response rating (chickweed; postemergence, 62 g ai/ha): 25
Bromegrass, Downy plant response rating (bromegrass, downy; Postemergence, 31 g ai/ha): 5
Bromegrass, Downy plant response rating (bromegrass, downy; Postemergence, 125 g ai/ha): 15
Bromegrass, Downy plant response rating (bromegrass, downy; Postemergence, 250 g ai/ha): 15
Bromegrass, Downy plant response rating (bromegrass, downy; postemergence, 62 g ai/ha): 10

CCOc1cc(C(=O)NCC(F)(F)F)nn1Cc1ccnc(C(F)(F)F)c1 [Compound 104]
Plant response rating, Hairy Beggarticks (hairy beggarticks; [3]): 0
Plant response rating, Hairy Beggarticks (hairy beggarticks; [4]): 0
Plant response rating, Hairy Beggarticks (hairy beggarticks; [5]): 10
Plant response rating, Hairy Beggarticks (hairy beggarticks; [6]): 0
Plant response rating, Hairy Beggarticks (hairy beggarticks; [7]): 0
Plant response rating, Arrowleaf Sida (arrowleaf sida; [3]): 10
Plant response rating, Arrowleaf Sida (arrowleaf sida; [4]): 20
Plant response rating, Arrowleaf Sida (arrowleaf sida; [5]): 30
Plant response rating, Arrowleaf Sida (arrowleaf sida; [6]): 0
Plant response rating, Arrowleaf Sida (arrowleaf sida; [7]): 0
Plant response rating, Nightshade (nightshade; [3]): 100
Plant response rating, Nightshade (nightshade; [4]): 100
Plant response rating, Nightshade (nightshade; [5]): 100
Plant response rating, Nightshade (nightshade; [6]): 0
Plant response rating, Nightshade (nightshade; [7]): 65
Plant response rating, Kochia (kochia [2]; [3]): 25
Plant response rating, Kochia (kochia [2]; [4]): 100
Plant response rating, Kochia (kochia [2]; [5]): 100
Plant response rating, Kochia (kochia [2]; [6]): 0
Plant response rating, Common Ragweed (common ragweed; [3]): 95
Plant response rating, Common Ragweed (common ragweed; [4]): 100
Plant response rating, Common Ragweed (common ragweed; [5]): 100
Plant response rating, Common Ragweed (common ragweed; [6]): 0
Plant response rating, Common Ragweed (common ragweed; [7]): 0

CCNC(=O)c1cc(CCCl)n(Cc2ccnc(C(F)(F)F)c2)n1 [Compound 179]
Plant response rating, Hairy Beggarticks (hairy beggarticks; [3]): 40
Plant response rating, Hairy Beggarticks (hairy beggarticks; [4]): 40
Plant response rating, Hairy Beggarticks (hairy beggarticks; [5]): 40
Plant response rating, Hairy Beggarticks (hairy beggarticks; [6]): 35
Plant response rating, Arrowleaf Sida (arrowleaf sida; [3]): 0
Plant response rating, Arrowleaf Sida (arrowleaf sida; [4]): 0
Plant response rating, Arrowleaf Sida (arrowleaf sida; [5]): 35
Plant response rating, Arrowleaf Sida (arrowleaf sida; [6]): 0
Plant response rating, Nightshade (nightshade; [3]): 65
Plant response rating, Nightshade (nightshade; [4]): 85
Plant response rating, Nightshade (nightshade; [5]): 100
Plant response rating, Nightshade (nightshade; [6]): 0
Plant response rating, Kochia (kochia [2]; [3]): 30
Plant response rating, Kochia (kochia [2]; [4]): 35
Plant response rating, Kochia (kochia [2]; [5]): 90
Plant response rating, Kochia (kochia [2]; [6]): 0
Plant response rating, Common Ragweed (common ragweed; [3]): 40
Plant response rating, Common Ragweed (common ragweed; [4]): 65
Plant response rating, Common Ragweed (common ragweed; [5]): 80
Plant response rating, Common Ragweed (common ragweed; [6]): 0

From patent US20150105252A1, “SUBSTITUTED PYRAZOLES AS HERBICIDES” (E I DU PONT DE NEMOURS AND COMPANY, priority 2013, published 2015)
